Measurements reported in patent US11040976B2, “Substrate selective inhibitors of insulin-degrading enzyme (IDE) and uses thereof” (President and Fellows of Harvard College, priority 2015, dated 2021).

Target: T1, IDE (R&D), substrate glucagon (Homo sapiens, UniProt P14735)
T1 construct: recombinant human IDE42-1019 (R&D Systems); purchased R&D
T1 sequence (P14735 42-1019): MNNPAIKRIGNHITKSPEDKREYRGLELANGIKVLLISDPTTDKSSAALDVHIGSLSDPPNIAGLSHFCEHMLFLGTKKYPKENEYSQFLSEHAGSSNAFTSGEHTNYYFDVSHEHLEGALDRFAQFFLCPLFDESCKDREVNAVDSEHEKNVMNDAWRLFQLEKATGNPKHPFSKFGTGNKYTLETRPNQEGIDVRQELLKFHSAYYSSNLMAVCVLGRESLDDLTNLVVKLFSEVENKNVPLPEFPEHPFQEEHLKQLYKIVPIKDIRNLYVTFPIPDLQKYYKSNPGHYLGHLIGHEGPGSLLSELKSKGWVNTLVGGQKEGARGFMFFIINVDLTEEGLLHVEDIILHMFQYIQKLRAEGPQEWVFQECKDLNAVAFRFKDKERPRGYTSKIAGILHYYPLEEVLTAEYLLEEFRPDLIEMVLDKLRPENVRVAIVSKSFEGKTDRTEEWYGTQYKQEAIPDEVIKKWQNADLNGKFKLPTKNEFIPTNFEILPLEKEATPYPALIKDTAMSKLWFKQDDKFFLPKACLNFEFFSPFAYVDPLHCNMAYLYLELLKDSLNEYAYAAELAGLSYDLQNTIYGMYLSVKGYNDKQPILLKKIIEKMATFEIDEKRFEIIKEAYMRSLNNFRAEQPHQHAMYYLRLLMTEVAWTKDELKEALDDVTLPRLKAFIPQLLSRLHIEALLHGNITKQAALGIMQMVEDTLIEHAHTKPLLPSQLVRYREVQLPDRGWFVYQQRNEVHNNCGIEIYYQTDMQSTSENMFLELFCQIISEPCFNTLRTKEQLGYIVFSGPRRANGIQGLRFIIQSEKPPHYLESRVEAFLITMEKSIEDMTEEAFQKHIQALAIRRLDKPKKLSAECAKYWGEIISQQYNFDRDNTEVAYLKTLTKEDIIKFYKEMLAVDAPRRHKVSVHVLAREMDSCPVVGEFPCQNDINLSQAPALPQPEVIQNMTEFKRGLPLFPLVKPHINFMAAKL
Test: HTRF assay for IDE-mediated degradation of glucagon
Format: biochemical
Conditions: compounds 67 μM, 0° C. for 10 minutes, versus DMSO alone, FIG. 5
Procedure: A solution of 0.05 μg/mL IDE (R&D) in “Diluent #5” (CisBio, 24 μL) was transferred to a 200 μL tube strip, and combined with 1 μL of each inhibitor (10 mM in DMSO, or as a 3-fold dilution series). […] This procedure was optimized to result in ˜75% degradation of glucagon. The reaction was terminated by 1 μL of inhibitor Ii1 (5 μM) and chilled on ice. The remaining glucagon was quantified using 10 μL of the quenched enzymatic reaction using the sensitive-range protocol Homogeneous Time-Resolved FRET Glucagon assay (CisBio® 62GLCPEF, see FIG. 3) in 20 μL total volume according to the manufacturer's instructions (384 well-plate Greiner 784904 non-binding). Fluorescence was measured using a Tecan M1000Pro plate reader (excitation=340 nm, emission=665 and 620 nm, lag time=60 μs) according the assay manufacturer's recommendations. Blank wells and glucagon standard curve were included in the assay.
FIG. 4 compares the determined endpoint for insulin degradation with of glucagon degradation for a DMSO control, 6bK at 10 μM, and exemplary compounds of the invention at concentrations of 67 μM.
The HTRF endpoint assay for insulin and glucagon was performed over a range of concentrations for several potential inhibitors and for 6bK.

initial rates of glucagon cleavage: reduced
SMILES: Cc1cccc(-c2ccc([C@@H]3[C@@H](CO)N4CCCCN(S(=O)(=O)c5ccccc5C)C[C@@H]34)cc2)c1 [compound 297]
